Assay results reported in PMC8329121 (Journal of Neuroimmune Pharmacology, 2021).
“And” between values parts separate entries of the source, which are not always exact repeats. Identical values can stand only once. Like-named read-outs stand apart in the source and are kept apart here.

How the values were obtained:
[1] = target: T1, hDAT Y88F/D206L/H547A (Homo sapiens, UniProt Q01959, D206L/H547A/Y88F); test: [3H]WIN35,428 binding in intact PC12 cells
T1 construct: expressed in transfected cells; host or cells: PC12 cells, transient, pcDNA3.1+
T1 sequence (Q01959 1-620 Y88F/D206L/H547A): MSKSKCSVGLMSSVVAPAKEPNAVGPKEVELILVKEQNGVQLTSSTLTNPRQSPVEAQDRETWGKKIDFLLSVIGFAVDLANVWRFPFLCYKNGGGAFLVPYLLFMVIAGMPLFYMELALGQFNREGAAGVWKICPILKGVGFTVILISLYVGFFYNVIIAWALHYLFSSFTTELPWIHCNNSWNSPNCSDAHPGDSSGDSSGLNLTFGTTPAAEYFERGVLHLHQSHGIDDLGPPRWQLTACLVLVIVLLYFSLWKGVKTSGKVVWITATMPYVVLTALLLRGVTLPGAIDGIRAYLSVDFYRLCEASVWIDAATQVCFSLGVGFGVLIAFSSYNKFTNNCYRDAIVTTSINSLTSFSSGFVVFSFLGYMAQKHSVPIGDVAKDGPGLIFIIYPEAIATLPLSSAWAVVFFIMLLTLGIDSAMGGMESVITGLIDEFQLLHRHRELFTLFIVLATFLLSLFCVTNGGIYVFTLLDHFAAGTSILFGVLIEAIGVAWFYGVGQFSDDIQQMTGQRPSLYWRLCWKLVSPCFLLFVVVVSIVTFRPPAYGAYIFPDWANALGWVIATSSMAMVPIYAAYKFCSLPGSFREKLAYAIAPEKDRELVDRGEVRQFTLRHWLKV
Protocol: (§1) For the competitive inhibition experiment, assays were performed in duplicate in a final volume of 500 µl. […] Assays were terminated by removal of reaction reagents in well and then washed three times with ice-cold assay buffer. Cells were lysed with 1 % SDS for an hour. Radioactivity was determined as described above.

[2] = target: T2, hDAT D206L (Homo sapiens, UniProt Q01959, D206L); test: [3H]WIN35,428 binding in intact PC12 cells
T2 construct: expressed in transfected cells; host or cells: PC12 cells, transient, pcDNA3.1+
Protocol: as §1

[3] = target: T3, hDAT D381L (Homo sapiens, UniProt Q01959, D381L); test: [3H]WIN35,428 binding in intact PC12 cells
T3 construct: expressed in transfected cells; host or cells: PC12 cells, transient, pcDNA3.1+
Protocol: as §1

[4] = target: T4, hDAT D206L/H547A (Homo sapiens, UniProt Q01959, D206L/H547A); test: [3H]WIN35,428 binding in intact PC12 cells
T4 construct: expressed in transfected cells; host or cells: PC12 cells, transient, pcDNA3.1+
Protocol: as §1

[5] = target: T4, hDAT D206L/H547A; test: [3H]DA uptake kinetics and inhibition in intact PC12 cells; format: cell-based
[6] = target: T5, WT hDAT (Homo sapiens, UniProt Q01959); format: binding; set-up: expressed in transfected cells; host or cells: PC12 cells, transient, pcDNA3.1+; details: for increase in specific [3H]WIN35,428 binding: Fig. 6d; for Bmax of [3H]WIN35,428 binding: PC12 cells
Protocol: as §1

[7] = target: T1, hDAT Y88F/D206L/H547A; test: [3H]DA uptake kinetics and inhibition in intact PC12 cells; format: cell-based
[8] = target: T3, hDAT D381L; test: as above; format: cell-based
[9] = target: T2, hDAT D206L; test: as above; format: cell-based
[10] = target: T5, WT hDAT; details: for Vmax of [3H]DA uptake: PC12 cells
[11] = target: T5, WT hDAT; test: Kinetic analysis of [3H]DA uptake with or without 2-BP in PC12 cells; format: cell-based; set-up: expressed in transfected cells; host or cells: PC12 cells, transient, pcDNA3.1+; details: 15 µM 2-BP
Protocol: (§2) This concentration was chosen based on previous studies as well as pilot experiments conducted to determine the optimal concentration (data not shown). […] Intact PC12 cells in 24-well plates transiently expressing WT hDAT or H547A were washed twice with 1× KRH buffer. […] Nonspecific uptake was determined in the presence of 10 µM nomifensine and desipramine. […] specific uptake, nonspecific uptake was subtracted from total uptake. To determine the effects of 2-BP exposure at the 2 h time point, the cells were incubated similarly as above, but allowed to incubate at room temperature for 2 h. After each incubation, cells were washed twice with ice-cold 1× KRH buffer to terminate the […], lysed with 500 µl 1 % SDS, and allowed to shake at room temperature for an hour. Lysates were collected into scintillation vials and radioactivity was measured via liquid scintillation as above. Radioactivity was measured the next day using a liquid scintillation counter (model Tri-Carb 2900TR; PerkinElmer Life and Analytical Sciences, Waltham, MA).

[12] = target: T6, hDAT H547A (Homo sapiens, UniProt Q01959, H547A); test: as above; format: cell-based; details: 15 µM 2-BP
T6 construct: expressed in transfected cells; host or cells: PC12 cells, transient, pcDNA3.1+
Protocol: as §2

[13] = ZnCl2 1, 10, 100 µM, concentration-dependent

T2 sequence (Q01959 whole entry D206L): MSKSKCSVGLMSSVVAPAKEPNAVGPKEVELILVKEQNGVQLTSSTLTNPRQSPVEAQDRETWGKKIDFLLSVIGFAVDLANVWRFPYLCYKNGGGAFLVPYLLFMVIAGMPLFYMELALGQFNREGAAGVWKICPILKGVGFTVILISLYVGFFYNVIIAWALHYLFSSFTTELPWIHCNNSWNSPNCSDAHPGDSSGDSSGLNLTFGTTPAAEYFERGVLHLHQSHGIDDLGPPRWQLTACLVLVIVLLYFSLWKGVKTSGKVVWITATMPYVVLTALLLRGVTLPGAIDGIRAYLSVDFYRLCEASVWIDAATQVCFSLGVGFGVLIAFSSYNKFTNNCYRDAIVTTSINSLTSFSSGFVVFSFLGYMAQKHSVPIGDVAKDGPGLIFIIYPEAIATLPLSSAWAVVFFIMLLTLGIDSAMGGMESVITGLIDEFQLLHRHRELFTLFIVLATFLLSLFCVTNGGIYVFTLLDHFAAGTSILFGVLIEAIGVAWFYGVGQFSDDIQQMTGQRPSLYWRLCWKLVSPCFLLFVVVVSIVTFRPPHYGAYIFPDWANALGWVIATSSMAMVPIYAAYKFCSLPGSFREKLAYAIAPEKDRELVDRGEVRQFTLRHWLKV
T5 sequence (Q01959 whole entry): as the sequence (Q01959 whole entry D206L) above, with L206D counted along it
T4 sequence (Q01959 whole entry D206L/H547A): as the sequence (Q01959 whole entry D206L) above, with H547A counted along it
T3 sequence (Q01959 whole entry D381L): as the sequence (Q01959 whole entry D206L) above, with L206D, D381L counted along it
T6 sequence (Q01959 whole entry H547A): as the sequence (Q01959 whole entry D206L) above, with L206D, H547A counted along it

[Cl-].[Cl-].[Zn+2] [Zn^2+, ZnCl2]
zinc-induced increase in [3H]WIN35,428 binding versus WT hDAT ([1]; 10 and 100 µM Zn2+, Fig. 6d): attenuated | zinc effect on specific [3H]WIN35,428 binding [2, 13]: increase | zinc effect on specific [3H]WIN35,428 binding [3, 13]: increase | zinc-induced increase in [3H]WIN35,428 binding versus WT hDAT ([4]; 10 and 100 µM Zn2+, Fig. 6d): attenuated | zinc effect on [3H]DA uptake [5, 13]: decrease | increase in specific [3H]WIN35,428 binding ([6]; 10 µM Zn2+): 39% | increase in specific [3H]WIN35,428 binding ([6]; 100 µM Zn2+): 52% | zinc effect on specific [3H]WIN35,428 binding [6, 13]: increase | zinc effect on [3H]DA uptake [7, 13]: decrease | zinc effect on [3H]DA uptake [8, 13]: decrease | zinc effect on [3H]DA uptake [9, 13]: decrease

[3H]C(CN)c1ccc(O)c(O)c1 (stereo not drawn) [[^3H]DA, 3,4-ethyl-2[N-^3H]dihydroxyphenylethylamine]
Vmax of [3H]DA uptake ([5]; PC12 cells): 40.82 ± 3.60 pmol/min/10^5 cells | Vmax of [3H]DA uptake ([7]; PC12 cells): 10.78 ± 0.98 pmol/min/10^5 cells | Vmax of [3H]DA uptake ([10]; Table 1 series (single mutants)): 12.43 ± 2.50 pmol/min/10^5 cells | Vmax of [3H]DA uptake ([10]; Table 2 series (double and triple mutants)): 26.62 ± 3.87 pmol/min/10^5 cells | Vmax of [3H]DA uptake ([8]; PC12 cells): 4.54 ± 0.95 pmol/min/10^5 cells | Vmax of [3H]DA uptake ([9]; PC12 cells): 13.09 ± 3.55 pmol/min/10^5 cells

CCCCCCCCCCCCCCC(Br)C(=O)O (stereo not drawn) [2-BP, 2-bromopalmitate]
Vmax of [3H]DA uptake in the presence of 2-BP ([11]; 0 h): 5.36 ± 0.74 pmol/min/10^5 cells | Vmax of [3H]DA uptake in the presence of 2-BP ([11]; 2 h): 5.55 ± 0.92 pmol/min/10^5 cells | Vmax of [3H]DA uptake in the presence of 2-BP ([12]; 0 h): 6.41 ± 1.45 pmol/min/10^5 cells | Vmax of [3H]DA uptake in the presence of 2-BP ([12]; 2 h): 5.56 ± 1.93 pmol/min/10^5 cells and 5.66 ± 1.93 pmol/min/10^5 cells

COC(=O)[C@H]1[C@@H](c2ccc(F)cc2)C[C@@H]2CC[C@H]1N2C [[^3H]WIN35,428]
Bmax of [3H]WIN35,428 binding ([1]; PC12 cells): 3.50 ± 0.47 poml/10^5 cells | Bmax of [3H]WIN35,428 binding ([2]; PC12 cells): 2.87 ± 0.96 pmol/10^5 cells | Bmax of [3H]WIN35,428 binding ([3]; PC12 cells): 2.00 ± 0.63 pmol/10^5 cells | Bmax of [3H]WIN35,428 binding ([4]; PC12 cells): 4.95 ± 1.28 poml/10^5 cells | Bmax of [3H]WIN35,428 binding ([6]; Table 3 series): 3.32 ± 0.58 pmol/10^5 cells | Bmax of [3H]WIN35,428 binding ([6]; Table 4 series): 2.44 ± 0.40 poml/10^5 cells

NCCc1ccc(O)c(O)c1 [[^3H]DA, 3,4-ethyl-2[N-^3H]dihydroxyphenylethylamine]
Km ([10]; read-out: Km of [3H]DA uptake, PC12 cells, Table 2 series): 0.45 ± 0.21 µM | Km ([8]; PC12 cells): 1.04 ± 0.34 µM | Km ([9]; PC12 cells): 1.66 ± 0.78 µM
